Test results taken from patent publication US20210346663A1, “METHODS FOR IMPROVING DRUG EFFICACY” (Nuvaira, Inc., priority 2012, published 2021).

Test: Pulmonary function after vagus nerve disruption followed by drug administration in patients with obstructive lung disease
Assay type: in vivo
Conditions: drug given after nerve activity-modulating treatment
Text: For two treatments with similar mechanisms of action (e.g., vagus nerve disruption that eliminates or reduces acetylcholine production and pharmacological inhibition of acetylcholine production or release), one would expect that the combination of such treatments would result in less of an improvement than the combination of two treatments with different/complementary mechanisms of action.

SMILES: CC(C)[N+]1(C)[C@@H]2CC[C@H]1C[C@@H](OC(=O)C(CO)c1ccccc1)C2 (stereo partly shown) [ipratropium bromide]
- effect on lung functions of administration after vagus nerve disruption: additive effect
